Measurements as given in patent publication US7273925B1, “Methods and products for regulating lectin complement pathway associated complement activation” (Brigham and Women's Hospital, Inc., priority 1998, dated 2007).

Experiments:
MBL [1] = target: T1, MBL (Homo sapiens, UniProt P11226); assay: iC3b (C3) deposition cell surface ELISA on hypoxic/reoxygenated HUVECs; type: cell-based; conditions: for attenuation of iC3b deposition: HUVECs 24 hr hypoxia, 3 hr reoxygenation; for iC3b deposition compared with normoxic HUVECs (FIG. 4a): 30 mmol/L in 30% human serum; for inhibition of iC3b deposition on hypoxic/reoxygenated HUVECs (in words): sugar at 3-300 mmol/L in 30% HS
T1 construct: 3 hr of reoxygenation in the presence of 30% human serum (HS); from tissue; host or cells: human serum (30% HS on HUVECs; 2% human sera on mannan-coated plates)
Experimental: Enzyme-Linked Immunoabsorbent Assay (ELISA) Experiments. […] HUVECs were grown to confluence on 0.1% gelatinized 96-well plastic plates (Corning Costar, Cambridge, Mass.). The plates were then subjected to 0 (normoxia) or 24 hr of hypoxia. Hypoxic stress was maintained using a humidified sealed chamber (Coy Laboratory Products, Inc., Grass Lake, Mich.) at 37° C. gassed with 1% O2, 5% CO2, balance N2 (Collard C D, et al., “Reoxygenation of hypoxic human umbilical vein endothelial cells activates the classical complement pathway”, Circulation 1997;96:326-333). Following the specified period of normoxia or hypoxia, the cell media were aspirated and 100 μl of one of the following was added to each well: 1) 30% HS, 2) Hank's balanced salt solution, 3) 30% HS+3, 30, or 300 mmol/L GluNAc, 4) 30% HS+3, 30, or 300 mmol/L D-mannose, 5) 30% HS+3, 30, 300 mmol/L L-mannose, 6) 30% MBL-depleted HS+3F8 (0, 20, 50 μg/ml)or 7) 30% MBL-depleted HS +0.6 μg/ml MBL. Additionally, 100 μl of purified MBL (3-300 ng/ml) was added to select wells to form a standard curve for quantitative analysis of MBL deposition. The cells were then reoxygenated for 3 hr at 37° C. in 95% air and 5% CO2. The cells were washed and then fixed with 1% paraformaldehyde (Sigma Chemical Co., St. Louis, Mo.) for 30 min. The cells were then washed and incubated at 4° C. for 1.5 hr with 50 μl of peroxidase-conjugated polyclonal goat anti-human C3 antibody (1:1000 dilution) or monoclonal anti-human MBL antibody (1:1000 dilution). The MBL ELISA plates were then washed and incubated for 1 hr at 4° C. with 50 μl of peroxidase-conjugated polyclonal goat anti-mouse IgG secondary antibody (1:1000 dilution). After washing the cells, the plates were developed with […] of ABTS (2,2′-azino-bis(3-ethylbenzthiazoline-6-sulfonic acid)), and read (Molecular Devices, Sunnyvale, Calif.) at 405 nm. Background controls for the C3 ELISA consisted of cells to which only the anti-human C3 antibody was added (i.e., no […]) or cells incubated with 30% heat-inactivated HS. Background controls for the MBL ELISA consisted of cells to which only secondary antibody and an isotype control monoclonal antibody to porcine C5a were added. Background optical density was subtracted from all groups. All ELISA experiments were performed 3 times using 6 wells per experimental group. Endothelial C3 and MBL deposition on normoxic vs. hypoxic […] was analyzed by two-way analysis of variance (ANOVA).
HUVEC cell culture and quantitation of iC3b deposition by ELISA were performed as outlined in Example 2.
Results. HUVECs were subjected to 0 or 24 hr of hypoxia followed by 3 hr of reoxygenation in the presence of 30% HS or 30% HS treated with 3, 30, or 300 mmol/L GluNAc, D-mannose or L-mannose in order to inhibit MBL deposition, LCP activation and iC3b deposition.
HUBECs were hypoxic for 24 hours and then reoxygenated in 30% human sera. iC3b deposition was then normalized to normoxic cells.

MBL [2] = target: T1, MBL; assay: MBL deposition cell surface ELISA on hypoxic/reoxygenated HUVECs; type: cell-based; conditions: for attenuation of MBL deposition: HUVECs 24 hr hypoxia, 3 hr reoxygenation
Experimental: C3 and MBL specific cell surface ELISAs can be performed using peroxidase-conjugated polyclonal goat anti-human C3 antibody (Cappel, West Chester, Pa.) and monoclonal anti-human MBL antibody (Biodesign, Kennebunk, Me., clone #131-1), respectively. HUVECs are grown to confluence on 0.1% gelatinized 96-well plastic plates (Corning Costar, Cambridge, Mass.). The plates are then subjected to 0 (normoxia) or 24 hr of hypoxia. Hypoxic stress is maintained using a humidified sealed chamber (Coy Laboratory Products, Inc., Grass Lake, Mich.) at 37° C. gassed with 1% O2, 5% CO2, balance N2 (Collard C D, et al., “Reoxygenation of hypoxic human umbilical vein endothelial cells activates the classical complement pathway”, Circulation, 1997;96:326-333). Following the specified period of normoxia or hypoxia, the cell media are aspirated and 100 μl of one the following is added to each well: 1) 30% HS, 2) Hank's balanced salt solution, 3) 30% HS +3, 30, or 300 mmol/L GluNAc, 4) 30% HS+3, 30, or 300 mmol/L D-mannose, 5) 30% HS+3, 30, 300 mmol/L L-mannose, 6) 30% MBL-depleted HS 7) 30% MBL-depleted HS+0.6 μg/ml MBL or 8) 30% HS+3, 30, or 300 mmol/L putative MBL binding peptide. Additionally, 100 μl of purified MBL (3-300 ng/ml) is added to select wells to form a standard curve for quantitative analysis of MBL deposition. The cells are then reoxygenated for 3 hr at 37° C. in 95% air and 5% CO2. The cells are washed and then fixed with 1% paraformaldehyde (Sigma Chemical Co., St. Louis, Mo.) for 30 min. The cells are then washed and incubated at 4° C. for 1.5 hr with 50 μl of peroxidase-conjugated polyclonal goat anti-human C3 antibody (1:1000 dilution) or monoclonal anti-human MBL antibody (1:1000 dilution). The MBL ELISA plates are then washed and incubated for 1 hr at 4° C. with 50 μl of peroxidase-conjugated polyclonal goat anti-mouse IgG secondary antibody (1:1000 dilution). After washing the cells, the plates are developed with 50 μl of ABTS (2,2′-azino-bis(3-ethylbenzthiazoline-6-sulfonic acid)), and read (Molecular Devices, Sunnyvale, Calif.) at 405 nm. Background controls for the C3 ELISA consist of cells to which only the anti-human C3 antibody is added (i.e., no HS) or cells incubated with 30% heat-inactivated HS. Background controls for the MBL ELISA consist of cells to which only secondary antibody and an isotype control monoclonal antibody to porcine C5a are added. Background optical density is subtracted from all groups. ELISA experiments are generally performed 3 times using 6 wells per experimental group. Endothelial C3 and MBL deposition on normoxic vs. hypoxic HUVECs is analyzed by two-way analysis of variance (ANOVA).
Enzyme-Linked Immunoabsorbent Assay (ELISA) Experiments. […]

MBL [3] = target: T1, MBL; assay: Functional screen: C3 deposition on mannan-coated plates in 2% human sera; type: biochemical
Experimental: Methods. The functional screen for inhibition of MBL function by anti-human MBL antibodies was adapted from the literature{Super, Levinsky, et al., The level of mannan-binding protein regulates the binding of complement-derived opsonins to mannanand zymosan at low serum concentrations, Clin. Exp. Immunol. 1990; 79:144-150}. Briefly, 100 μl of mcannan (0.5 mg/ml in sodium carbonate/bicarbonate buffer, pH 9.6) was added to RIA/EIA plates at 4C overnight. The plates were then washed 3 times in PBS/0.5% Tween pH 7.3, once in PBS and finally in veronal-buffered saline. Human serum is diluted to 4% in VBS containing 5 mM Ca^2+ and Mg^2+. Diluted sera and tissue culture supernatant or purified antibody (various concentrations) are then 1:1 to a mannan-coated well to yield a final volume or 100 μl at a concentration of 2% human sera. The plate is then incubated at 37C for 30 min. Positive and negative controls consist of human sera without and with 100 mM N-acetlglucosamine (GluNac). The plates are then washed four times in PBS/Tween. The plates are then incubated with an anti-human C3 polyclonal antibody coupled with HRP (1 hours at RT), washed and developed with ABTS and read at 405 nm.

HUVECs = assay: Microphysiometry of HUVEC extracellular acidification rate (EAR); type: cell-based, human; conditions: normoxic or hypoxic/reoxygenated HUVECs; MBL 300-1500 ng/ml, 40 min perfusion; histamine 1 μmol/L
Experimental: Microphysiometry. Changes in HUVEC extracellular acidification rate (EAR) were evaluated by use of a Cytosensor microphysiometer (Molecular Devices, Sunnyvale, Calif.). HUVECs were grown to 75% confluence on gelatin-coated (1%) transwell capsules and subjected to 24 hr of hypoxia followed by 3 hr of reoxygenation. Following 30 min of equilibration in modified RPMI containing 1 mmol/L phosphate buffer (Molecular Devices, Sunnyvale, Calif.), the EARs were determined (Gronert K, et al., “Characterization of human neutrophil and endothelial cell ligand-operated extacellular acidification rate by microphysiometry: Impact of reoxygenation”, J. Pharmacol.Exp.Ther. 1998;285:252-261). HUVECs were perfused with 300-1500 ng/ml of purified MBL (dialyzed in the modified RPMI) for 30 sec before the first rate measurement and perfusion was maintained for 40 min. As a positive control, the HUVECs were perfused with media alone for 15 min following MBL exposure and then stimulated with histamine (1 μmol/L, 15 min perfusion) to evoke extracellular acidification. Each concentration of MBL was analyzed in two independent chambers containing normoxic or hypoxic/reoxygenated HUVECs. The HUVEC response to each MBL concentration was evaluated in 3 separate experiments (n=3).

T1 sequence (P11226 21-248): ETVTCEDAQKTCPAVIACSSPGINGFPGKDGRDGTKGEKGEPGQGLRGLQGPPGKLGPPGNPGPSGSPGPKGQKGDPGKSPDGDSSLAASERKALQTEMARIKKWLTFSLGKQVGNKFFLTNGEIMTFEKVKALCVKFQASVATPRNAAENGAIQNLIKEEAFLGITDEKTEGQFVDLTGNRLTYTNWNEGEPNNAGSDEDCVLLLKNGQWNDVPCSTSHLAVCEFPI

O=C[C@@H](O)[C@@H](O)[C@H](O)[C@H](O)CO [D-mannose] was tested, and the “attenuation of iC3b deposition” value (MBL [1]; 3 mmol/L in 30% HS) was 19±2%, the “attenuation of iC3b deposition” value (MBL [1]; 30 mmol/L in 30% HS) was 52±3% and the “iC3b deposition compared with normoxic HUVECs (FIG. 4a)” value (MBL [1]) was “did not significantly differ from normoxic controls”. The “attenuation of iC3b deposition” value (MBL [1]; 300 mmol/L in 30% HS) was 96±2% and the “inhibition of iC3b deposition on hypoxic/reoxygenated HUVECs (in words)” value (MBL [1]) was “significantly attenuated”.
For CC(=O)N[C@H]1C(O)O[C@H](CO)[C@@H](O)[C@@H]1O (stereo partly drawn) [GluNAc, N-acetyl-D-glucosamine], the “attenuation of MBL deposition” value (MBL [2]; 3 mmol/L in 30% HS) was 40±4%, the “attenuation of MBL deposition” value (MBL [2]; 30 mmol/L in 30% HS) was 71±5% and the “attenuation of MBL deposition” value (MBL [2]; 300 mmol/L in 30% HS) was 96±3%. For the same compound, the “MBL deposition on hypoxic/reoxygenated HUVECs (in words)” value (MBL [2]; 3, 30, 300 mmol/L added to 30% HS, dose-dependent) was “significantly inhibited MBL deposition”, the EC50 (MBL [3]) was roughly 1 nM and the “iC3b deposition compared with normoxic HUVECs (FIG. 4a)” value (MBL [1]) was “did not significantly differ from normoxic controls”. The “inhibition of iC3b deposition on hypoxic/reoxygenated HUVECs (in words)” value (MBL [1]) was “significantly attenuated”.
O=C[C@H](O)[C@H](O)[C@@H](O)[C@@H](O)CO [L-mannose] was tested, and the “iC3b deposition compared with normoxic HUVECs (FIG. 4a)” value (MBL [1]) was “significantly greater than normoxic HUVECs”, the “iC3b deposition, OD405” value (MBL [1]; hypoxic HUVECs reoxygenated in 30% HS treated with the sugar, normoxic 0.05±0.01) was 0.14±0.01 and the “inhibition of iC3b deposition on hypoxic/reoxygenated HUVECs (in words)” value (MBL [1]) was “did not inhibit iC3b deposition”.
In the case of NCCc1c[nH]cn1 [histamine], the “change in extracellular acidification rate (EAR)” value (HUVECs) is reported as “all cells remained responsive”.
With “MBL: mannan-(or mannose) binding lectin purified from human plasma” the “change in extracellular acidification rate (EAR)” value (HUVECs) was “did not evoke receptor-mediated changes in the EAR”.
